Assay results as given in patent US20040229791A1, “Compositions and methods of modulating TGF-beta activity by fatty acids” (priority 2002, published 2004).

Legend:
[1] = target: T1, α2M* and nerve growth factor (NGF) (Homo sapiens, UniProt P01023); experiment: Complex formation between α2M* and nerve growth factor; assay type: binding
T1 sequence (P01023 24-1474): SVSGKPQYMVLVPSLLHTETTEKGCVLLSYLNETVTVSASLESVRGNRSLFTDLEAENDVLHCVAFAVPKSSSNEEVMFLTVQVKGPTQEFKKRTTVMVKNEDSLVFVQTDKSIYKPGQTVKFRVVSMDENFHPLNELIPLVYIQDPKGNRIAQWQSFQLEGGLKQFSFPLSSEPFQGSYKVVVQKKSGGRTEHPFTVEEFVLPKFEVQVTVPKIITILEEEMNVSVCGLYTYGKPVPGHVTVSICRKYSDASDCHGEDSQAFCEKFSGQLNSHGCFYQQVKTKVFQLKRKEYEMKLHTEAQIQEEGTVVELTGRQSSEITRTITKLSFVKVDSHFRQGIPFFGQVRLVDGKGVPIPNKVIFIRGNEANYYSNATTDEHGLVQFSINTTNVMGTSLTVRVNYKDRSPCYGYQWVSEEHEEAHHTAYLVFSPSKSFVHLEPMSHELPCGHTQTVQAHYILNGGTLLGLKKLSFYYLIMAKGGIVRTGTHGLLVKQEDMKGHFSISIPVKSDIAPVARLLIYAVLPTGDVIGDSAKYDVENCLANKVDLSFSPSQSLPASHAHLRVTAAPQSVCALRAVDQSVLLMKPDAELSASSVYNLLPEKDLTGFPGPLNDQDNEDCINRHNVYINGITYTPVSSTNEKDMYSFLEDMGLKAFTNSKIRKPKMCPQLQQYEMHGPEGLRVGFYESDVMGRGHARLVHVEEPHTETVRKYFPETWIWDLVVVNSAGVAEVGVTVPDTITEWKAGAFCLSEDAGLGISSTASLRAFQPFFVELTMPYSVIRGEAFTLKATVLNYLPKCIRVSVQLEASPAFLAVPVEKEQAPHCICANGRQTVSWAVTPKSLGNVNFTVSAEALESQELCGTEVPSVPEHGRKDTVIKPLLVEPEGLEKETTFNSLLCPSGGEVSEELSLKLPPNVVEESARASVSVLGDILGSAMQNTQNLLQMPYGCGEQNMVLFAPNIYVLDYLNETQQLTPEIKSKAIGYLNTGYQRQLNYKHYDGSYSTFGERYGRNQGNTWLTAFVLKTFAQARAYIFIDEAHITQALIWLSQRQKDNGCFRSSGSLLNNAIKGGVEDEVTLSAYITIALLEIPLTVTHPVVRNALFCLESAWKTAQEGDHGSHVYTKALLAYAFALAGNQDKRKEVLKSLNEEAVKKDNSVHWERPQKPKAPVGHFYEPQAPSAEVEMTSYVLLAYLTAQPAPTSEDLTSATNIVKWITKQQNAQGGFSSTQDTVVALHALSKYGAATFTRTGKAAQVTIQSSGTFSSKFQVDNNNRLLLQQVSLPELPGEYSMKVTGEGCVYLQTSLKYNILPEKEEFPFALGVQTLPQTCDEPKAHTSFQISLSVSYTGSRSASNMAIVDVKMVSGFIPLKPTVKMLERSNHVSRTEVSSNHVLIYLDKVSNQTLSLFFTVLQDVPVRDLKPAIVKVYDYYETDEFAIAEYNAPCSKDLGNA

[2] = Plasma clearance of 125I-TGF-β2 with and without α2M* and arachidonic acid; assay type: in vivo, mice; conditions: control experiments, no α2M*
Experimental: TGF ? β1-α2M* and TGF- ? 2- ? 2M* complexes are cleared from plasma by the ? liver (30). To test the possibility that fatty acids may be able to affect the plasma clearance of TGF ? β and α2M* complexes, ^125I-TGF ? β1 or ^125I-TGF- ? 2 were prei presence or absence of 10 μM arachidonic acid at room temperature for 30 min, and then injected into mice via tail vein according to published procedures (19). At several time intervals (10 sec, 1, 2, 3, 5, 10, 15, 20, 30 and 60 min) about 50 μl of blood was collected and counted by a γ-counter. […] The t 1+α2M* or ^125I-TGF- ? 2+α2M* were approximately 4 min. These twith published values of free ^125I-TGF- ? 1,2 and ^125I-TGF- ? 1,2-α2M* complexes, respe (19). In the presence of arachidonic acid, the t1/2s of ^125I-TGF ? β1+α2M* and ^125I-TGF α2M* were decreased to approximately 1-2 min; these are essentially identical to the t1/2s of free ^125I-TGF- ? 1 and ^125I-TGF ? β2 (FIGS. 7A and B). In control experiments, arachidonic acid did no affect the plasma clearance of free ^125I-TGF ? β1 and ^125I-TGF- ? 2.
Plasma clearance of ^125I-TGF ? β in the presence and absence of ? 2M*-^125I-TGF- ? 1 nM) or ^125I-TGF- ? 2 (1 nM) was pre-incubated with ? […] The radioactivity in the blood sample obtained at 10 s was taken as 100%.

[3] = target: T2, α2M* and basic fibroblast growth factor (bFGF) (Homo sapiens, UniProt P01023); experiment: Complex formation between α2M* and basic fibroblast growth factor; assay type: binding
T2 sequence (P01023 24-1474): T1 sequence (P01023 24-1474)

CCCCC/C=C\C/C=C\C/C=C\C/C=C\CCCC(=O)O [arachidonic acid]
blocking of complex formation between α2M* and NGF [1]: block complex formation | effect on plasma clearance of free 125I-TGF-β2 [2]: did no affect | blocking of complex formation between α2M* and bFGF [3]: block complex formation
